Measured values published in patent US6359152B2, “18-substituted-19-nor-vitamin D compounds” (Wisconsin Alumni Research Foundation, priority 1997, dated 2002).

Columns and labels:
[1] = target: T1, porcine intestinal vitamin D receptor (Sus scrofa, UniProt A3RGC1); experiment: Competitive binding of [3H]-1,25-(OH)2-D3 to the porcine intestinal vitamin D receptor; settings: at low concentrations; FIG. 1
T1 sequence (A3RGC1 1-427): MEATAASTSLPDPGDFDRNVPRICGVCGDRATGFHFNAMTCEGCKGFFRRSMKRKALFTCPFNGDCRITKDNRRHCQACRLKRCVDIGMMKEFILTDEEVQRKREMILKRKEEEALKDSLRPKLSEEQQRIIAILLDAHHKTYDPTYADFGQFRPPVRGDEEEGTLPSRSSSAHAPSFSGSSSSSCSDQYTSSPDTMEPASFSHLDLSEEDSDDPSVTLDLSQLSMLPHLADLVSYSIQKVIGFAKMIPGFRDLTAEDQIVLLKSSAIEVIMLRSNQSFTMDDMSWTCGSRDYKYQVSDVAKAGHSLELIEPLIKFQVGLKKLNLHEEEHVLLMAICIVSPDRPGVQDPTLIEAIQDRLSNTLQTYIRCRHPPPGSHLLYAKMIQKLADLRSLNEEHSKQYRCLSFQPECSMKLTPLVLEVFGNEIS
Procedure: Competitve binding of the analogs to the porcine intestinal receptor was carried out by the method described by Dame et al (Biochemistry 25, 4523-4534, 1986).

[2] = system: Intestinal Calcium Transport; experiment: Intestinal calcium transport (everted sac) in vitamin D-deficient rats after chronic dosing; format: in vivo; settings: for Intestinal Calcium Transport (S/M): intraperitoneal, vitamin D-deficient low calcium diet rats, mean ± SEM, 24 h after last dose; for intestinal calcium transport activity (in words): versus control, given for 7 days in a chronic mode
Procedure: (§1) Male weanling rats were obtained from Sprague Dawley Co. (Indianapolis, Ind.) and fed a 0.47% calcium, 0.3% phosphorus vitamin D-deficient diet for 1 week and then given the same diet containing 0.02% calcium, 0.3% phosphorus for 3 weeks. During the last week they were given the indicated dose of compound by intraperitoneal injection in 0.1 ml 95% propylene glycol and 5% ethanol each day for 7 days. The control animals received only the 0.1 ml of 95% propylene glycol, 5% ethanol. Twenty-four hours after the last dose, the rats were sacrificed and intestinal calcium transport was determined by everted sac technique as previously described and serum calcium determined by atomic absorption spectrometry on a model 3110 Perkin Elmer instrument (Norwalk, Conn.). There were 5 rats per group and the values represent mean ±SEM.

[3] = system: Serum Calcium (Bone Calcium Mobilization); experiment: Serum calcium (bone calcium mobilization) in vitamin D-deficient rats after chronic dosing; format: in vivo; settings: for Serum Calcium (mg/100 ml): intraperitoneal, vitamin D-deficient low calcium diet rats, mean ± SEM, 24 h after last dose; for bone calcium mobilizing activity (in words): versus control, given for 7 days in a chronic mode
Procedure: as §1

[4] = system: HL-60 cells; settings: compared to 1,25-(OH)2D3; FIG. 2
Procedure: The differentiation of HL-60 promyelocytic into monocytes was determined as described by Ostrem et al (J. Biol. Chem. 262, 14164-14171, 1987).

Row | SMILES | binding activity compared to 1,25-(OH)2D3 [1] | Intestinal Calcium Transport (S/M) ([2]; 260 pmol/day for 7 days) | Intestinal Calcium Transport (S/M) ([2]; 500 pmol/day for 7 days) | intestinal calcium transport activity (in words) [2] | Serum Calcium (mg/100 ml) ([3]; 260 pmol/day for 7 days) | Serum Calcium (mg/100 ml) ([3]; 500 pmol/day for 7 days) | bone calcium mobilizing activity (in words) [3] | activity in inducing differentiation of HL-60 cells to the monocyte [4]
1 | CC[C@]12CCC/C(=C\C=C3C[C@@H](O)C[C@H](O)C3)[C@@H]1CC[C@@H]2[C@H](C)CCCC(C)(C)O [13-Ethyl-18,19-Dinor-1,25-(OH)2D3, 1α,25-dihydroxy-13-ethyl-18,19-dinor-vitamin D3] | approximately twice | 4.30 ± 0.20 S/M | 4.40 ± 0.27 S/M | no significant change versus control | 4.39 ± 0.53 mg/100 ml | 3.99 ± 0.33 mg/100 ml | no significant change versus control | activity similar to 1,25-(OH)2D3
2 | C[C@H](CCCC(C)(C)O)[C@H]1CC[C@H]2/C(=C/C=C3C[C@@H](O)C[C@H](O)C3)CCC[C@]12C [19-Nor-1,25-(OH)2D3, 1α,25-dihydroxy-19nor-vitamin D3, reference compound] | – | 4.02 ± 0.50 S/M | – | – | 3.83 ± 0.20 mg/100 ml | – | – | –
3 | C=CC12CCC/C(=C\C=C3C[C@@H](O)C[C@H](O)C3)[C@@H]1CC[C@@H]2[C@H](C)CCCC(C)(C)O (stereo partly drawn) [13-Vinyl-18,19-Dinor-1,25-(OH)2D3, 1α,25-dihydroxy-13-vinyl-18,19-dinor-vitamin D3] | approximately twice | 4.02 ± 0.24 S/M | 4.25 ± 0.55 S/M | no significant change versus control | 3.32 ± 0.21 mg/100 ml | 3.52 ± 0.12 mg/100 ml | no significant change versus control | activity similar to 1,25-(OH)2D3
